Among the data in patent US20060183714A1, “3-Alpha-glycosyl alpha, alpha-trehalose compound, process for producing the same, and use” (priority 2003, published 2006) are aminocarbonyl reaction and reducibility values, retold here.

Data set [1] is described as follows: aminocarbonyl (Maillard) reaction of the saccharide product. As to conditions: product as obtained. It is filed as physicochemical.
The nature of data set [2]: reducibility of the saccharide product. It is filed as physicochemical. As to conditions: product as obtained.

Structures are written as SMILES.

`OC[C@H]1O[C@H](OC[C@H]2O[C@H](O[C@@H]3[C@@H](O)[C@@H](O[C@H]4O[C@H](CO)[C@@H](O)[C@H](O)[C@H]4O)O[C@H](CO)[C@H]3O)[C@H](O)[C@@H](O)[C@@H]2O)[C@H](O)[C@@H](O)[C@@H]1O` [Example 3, 3-α-isomaltosyl α,α-trehalose]: in data set [1], the aminocarbonyl reaction entry is on record as “hardly causes amino carbonyl reaction”. In data set [2], the reducibility result is given as “substantially no reducibility”.

In the case of `OC[C@H]1O[C@H](O[C@H]2O[C@H](CO)[C@@H](O)[C@H](O[C@H]3O[C@H](CO)[C@@H](O)[C@H](O)[C@H]3O)[C@H]2O)[C@H](O)[C@@H](O)[C@@H]1O` [Example 5, 3-α-glucosyl α,α-trehalose], the aminocarbonyl reaction result in data set [1] is recorded as “hardly causes aminocarbonyl reaction”. Besides, the reducibility entry in data set [2] was “substantially no reducibility”.
